From patent publication US20130029962A1, “Substituted Heteroaromatic Pyrazole-Containing Carboxamide and Urea Compounds as Vanilloid Receptor Ligands” (Gruenenthal GmbH, priority 2011, published 2013)

Molecular target: T1, vanilloid receptor 1 (VR1/TRPV1 receptor) (Homo sapiens, UniProt Q8NER1)
T1 construct: expressed in transfected cells; host or cells: CHO K1
Assay: Functional testing on the vanilloid receptor 1 (VR1/TRPV1): FLIPR Ca2+ influx assay, displacement of capsaicin
Assay type: cell-based, human being
Set-up: key to mode of action at VR1/TRPV1 (AG, pAG, NE), Cap: AG=agonist; NE=no effect; pAG=partial agonist
Conditions: for inhibition at 5 µM: 5 μM compound, read-out: inhibition (as a percentage) at the concentration after @, Cap; for inhibition at 5 µM / mode of action at VR1/TRPV1 (AG, pAG, NE), Cap: capsaicin (Cap), human being; for Ki: capsaicin (Cap) as stimulus, Ki from IC50 by Cheng-Prusoff, read-out: (f) Ki (human being) [nM] Cap
Experimental: Furthermore, preference may be given to compounds according to the invention that cause a 50 percent displacement of capsaicin, which is present at a concentration of 100 nM, in a FLIPR assay with CHO K1 cells which were transfected with the human VR1 gene at a concentration of less than 2,000 nM, preferably less than 1,000 nM, particularly preferably less than 300 nM, most particularly preferably less than 100 nM, even more preferably less than 75 nM, additionally preferably less than 50 nM, most preferably less than 10 nM.
In the process, the Ca^2+ influx is quantified in the FLIPR assay with the aid of a Ca^2+-sensitive dye (type Fluo-4, Molecular Probes Europe BV, Leiden, the Netherlands) in a fluorescent imaging plate reader (FLIPR, Molecular Devices, Sunnyvale, USA), as described hereinafter. […]
The number of cells in the suspension is set to 3×10^5 per mL and 150 μL of this suspension are in each case introduced into a recess in the cell culture plates coated as described hereinbefore. In the incubator the plates are left for two to three days at 37° C., 5% by volume of CO2 and 95% relative humidity. Subsequently, the cells are loaded with 2 μM of Fluo-4 and 0.01% by volume of Pluronic F127 (Molecular Probes Europe BV, Leiden, the Netherlands) in HBSS buffer (Hank's buffered saline solution, Gibco Invitrogen GmbH, Karlsruhe, Germany) for 30 min at 37° C., washed 3 times with HBSS buffer and after further incubation for 15 minutes at room temperature used for Ca^2+ measurement in a FLIPR assay. The Ca^2+-dependent fluorescence is in this case measured before and after the addition of substances (λex=488 nm, λem=540 nm). Quantification is carried out by measuring the highest fluorescence intensity (FC, fluorescence counts) over time.
The FLIPR protocol consists of 2 substance additions. First the compounds to be tested (10 μM) are pipetted onto the cells and the Ca^2+ influx is compared with the control (capsaicin 10 μM). This provides the result in % activation based on the Ca^2+ signal after the addition of 10 μM of capsaicin (CP). After 5 minutes' incubation, 100 nM of capsaicin are applied and the Ca^2+ influx is also determined. Desensitising agonists and antagonists lead to suppression of the Ca^2+ influx. The % inhibition is calculated compared to the maximum achievable inhibition with 10 μM of capsazepine. Triple analyses (n=3) are carried out and repeated in at least 3 independent experiments (N=4).
Starting from the percentage displacement caused by different concentrations of the compounds to be tested of general formula I, IC50 inhibitory concentrations which cause a 50-percent displacement of capsaicin were calculated. Ki values for the test substances were obtained by conversion by means of the Cheng-Prusoff equation (Cheng, Prusoff; Biochem. Pharmacol. 22, 3099-3108, 1973).
The affinity of the compounds according to the invention for the vanilloid receptor 1 (VR1/TRPV1 receptor) was determined as described above (pharmacological method I).

T1 sequence (Q8NER1 whole entry): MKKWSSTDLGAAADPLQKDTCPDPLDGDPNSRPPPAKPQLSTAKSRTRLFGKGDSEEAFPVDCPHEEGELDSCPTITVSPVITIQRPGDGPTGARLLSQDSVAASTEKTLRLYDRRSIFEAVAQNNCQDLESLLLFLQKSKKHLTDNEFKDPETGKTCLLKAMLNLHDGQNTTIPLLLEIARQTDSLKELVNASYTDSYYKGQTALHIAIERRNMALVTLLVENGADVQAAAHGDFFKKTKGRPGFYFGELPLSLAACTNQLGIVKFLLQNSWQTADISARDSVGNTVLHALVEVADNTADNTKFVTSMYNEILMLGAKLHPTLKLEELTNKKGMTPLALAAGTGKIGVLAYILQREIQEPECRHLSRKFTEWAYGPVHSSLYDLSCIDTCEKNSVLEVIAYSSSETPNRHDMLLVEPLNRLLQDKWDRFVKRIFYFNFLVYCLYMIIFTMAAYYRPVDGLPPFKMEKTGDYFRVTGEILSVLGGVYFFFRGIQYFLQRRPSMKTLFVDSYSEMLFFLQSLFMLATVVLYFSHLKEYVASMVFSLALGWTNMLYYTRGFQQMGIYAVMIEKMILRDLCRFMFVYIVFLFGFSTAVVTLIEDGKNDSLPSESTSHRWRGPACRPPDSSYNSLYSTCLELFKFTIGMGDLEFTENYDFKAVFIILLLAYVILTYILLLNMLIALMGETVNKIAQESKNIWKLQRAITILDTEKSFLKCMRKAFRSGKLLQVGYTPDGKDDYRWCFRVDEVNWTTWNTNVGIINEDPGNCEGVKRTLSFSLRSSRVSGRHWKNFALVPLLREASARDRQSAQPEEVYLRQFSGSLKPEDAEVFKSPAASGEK

O=C(Cc1ccccn1)NCc1cc(C(F)(F)F)nn1-c1cccc(Cl)c1 [Example 1, N-((1-(3-chlorophenyl)-3-(trifluoromethyl)-1H-pyrazol-5-yl)methyl)-2-(pyridin-2-yl)acetamide]
inhibition at 5 µM: 31%

CC(C(=O)NCc1cc(C(C)(C)C)nn1-c1cccc(Cl)c1)c1ccccn1 (stereo not shown) [Example 2, N-((3-tert-butyl-1-(3-chlorophenyl)-1H-pyrazol-5-yl)methyl)-2-(pyridin-2-yl)propanamide]
inhibition at 5 µM: 89%
mode of action at VR1/TRPV1 (AG, pAG, NE), Cap: AG

CC(C(=O)NCc1cc(C(F)(F)F)nn1-c1cccc(Cl)c1)c1ccccn1 (stereo not shown) [Example 3, N-((1-(3-chlorophenyl)-3-(trifluoromethyl)-1H-pyrazol-5-yl)methyl)-2-(pyridin-2-yl)propanamide]
inhibition at 5 µM: 35%

CC(C)(C)c1cc(CNC(=O)Nc2ccccn2)n(-c2cccc(Cl)c2)n1 [Example 4, 1-((3-tert-butyl-1-(3-chlorophenyl)-1H-pyrazol-5-yl)methyl)-3-(pyridin-2-yl)urea]
Ki: 47 nM

O=C(NCc1cc(C(F)(F)F)nn1-c1cccc(Cl)c1)Nc1ccccn1 [Example 5, 1-((1-(3-chlorophenyl)-3-(trifluoromethyl)-1H-pyrazol-5-yl)methyl)-3-(pyridin-2-yl)urea]
inhibition at 5 µM: 29%

CC(C)(C)c1cc(CNC(=O)Cc2cccnc2)n(-c2cccc(Cl)c2)n1 [Example 6, N-((3-tert-butyl-1-(3-chlorophenyl)-1H-pyrazol-5-yl)methyl)-2-(pyridin-3-yl)acetamide]
inhibition at 5 µM: 89%
mode of action at VR1/TRPV1 (AG, pAG, NE), Cap: AG

O=C(Cc1cccnc1)NCc1cc(C(F)(F)F)nn1-c1cccc(Cl)c1 [Example 7, N-((1-(3-chlorophenyl)-3-(trifluoromethyl)-1H-pyrazol-5-yl)methyl)-2-(pyridin-3-yl)acetamide]
inhibition at 5 µM: 51%

CC(C(=O)NCc1cc(C(F)(F)F)nn1-c1cccc(Cl)c1)c1cccnc1 (stereo not shown) [Example 8, N-((1-(3-chlorophenyl)-3-(trifluoromethyl)-1H-pyrazol-5-yl)methyl)-2-(pyridin-3-yl)propanamide]
Ki: 13 nM

O=C(NCc1cc(C(F)(F)F)nn1-c1cccc(Cl)c1)Nc1cccnc1 [Example 9, 1-((1-(3-chlorophenyl)-3-(trifluoromethyl)-1H-pyrazol-5-yl)methyl)-3-(pyridin-3-yl)urea]
inhibition at 5 µM: 72%
mode of action at VR1/TRPV1 (AG, pAG, NE), Cap: AG

CC(C)(C)c1cc(CNC(=O)Cc2ccncc2)n(-c2cccc(Cl)c2)n1 [Example 10, N-((3-tert-butyl-1-(3-chlorophenyl)-1H-pyrazol-5-yl)methyl)-2-(pyridin-4-yl)acetamide]
inhibition at 5 µM: 90%
mode of action at VR1/TRPV1 (AG, pAG, NE), Cap: AG

O=C(Cc1ccncc1)NCc1cc(C(F)(F)F)nn1-c1cccc(Cl)c1 [Example 11, N-((1-(3-chlorophenyl)-3-(trifluoromethyl)-1H-pyrazol-5-yl)methyl)-2-(pyridin-4-yl)acetamide]
inhibition at 5 µM: 79%
mode of action at VR1/TRPV1 (AG, pAG, NE), Cap: AG

O=C(NCc1cc(C(F)(F)F)nn1-c1cccc(Cl)c1)Nc1ccncc1 [Example 12, 1-((1-(3-chlorophenyl)-3-(trifluoromethyl)-1H-pyrazol-5-yl)methyl)-3-(pyridin-4-yl)urea]
inhibition at 5 µM: 85%
mode of action at VR1/TRPV1 (AG, pAG, NE), Cap: AG

O=C(Cc1ccncn1)NCc1cc(C(F)(F)F)nn1-c1cccc(Cl)c1 [Example 13, N-((1-(3-chlorophenyl)-3-(trifluoromethyl)-1H-pyrazol-5-yl)methyl)-2-(pyrimidin-4-yl)acetamide]
inhibition at 5 µM: 30%

CC(C)(C)c1cc(CNC(=O)Cc2cnccn2)n(-c2cccc(Cl)c2)n1 [Example 14, 1N-((3-tert-butyl-1-(3-chlorophenyl)-1H-pyrazol-5-yl)methyl)-2-(pyrazin-2-yl)acetamide]
mode of action at VR1/TRPV1 (AG, pAG, NE), Cap: pAG

O=C(NCc1cc(C(F)(F)F)nn1-c1cccc(Cl)c1)Nc1ccnnc1 [Example 15, 1-((1-(3-chlorophenyl)-3-(trifluoromethyl)-1H-pyrazol-5-yl)methyl)-3-(pyridazin-4-yl)urea]
mode of action at VR1/TRPV1 (AG, pAG, NE), Cap: AG

O=C(Cc1cncnc1)NCc1cc(C(F)(F)F)nn1-c1cccc(Cl)c1 [Example 16, N-((1-(3-chlorophenyl)-3-(trifluoromethyl)-1H-pyrazol-5-yl)methyl)-2-(pyrimidin-5-yl)acetamide]
Ki: 77 nM

O=C(Cc1ccc(Cl)nc1)NCc1cc(C(F)(F)F)nn1-c1cccc(Cl)c1 [Example 17, N-((1-(3-chlorophenyl)-3-(trifluoromethyl)-1H-pyrazol-5-yl)methyl)-2-(6-chloropyridin-3-yl)acetamide]
Ki: 29 nM

O=C(NCc1cc(C(F)(F)F)nn1-c1cccc(Cl)c1)Nc1cncc(F)c1 [Example 18, 1-((1-(3-chlorophenyl)-3-(trifluoromethyl)-1H-pyrazol-5-yl)methyl)-3-(5-fluoropyridin-3-yl)urea]
Ki: 39 nM

Cc1ncc(NC(=O)NCc2cc(C(F)(F)F)nn2-c2cccc(Cl)c2)cn1 [Example 19, 1-((1-(3-chlorophenyl)-3-(trifluoromethyl)-1H-pyrazol-5-yl)methyl)-3-(2-methylpyrimidin-5-yl)urea]
inhibition at 5 µM: 45%

CS(=O)(=O)CCc1ccc(NC(=O)NCc2cc(C(F)(F)F)nn2-c2cccc(Cl)c2)cn1 [Example 21, 1-((1-(3-chlorophenyl)-3-(trifluoromethyl)-1H-pyrazol-5-yl)methyl)-3-(6-(2-(methylsulfonyl)ethyl)pyridin-3-yl)urea]
Ki: 43 nM

CC(C)(C)c1cc(CNC(=O)Nc2cnc(CCS(C)(=O)=O)c(F)c2)n(-c2cccc(Cl)c2)n1 [Example 22, 1-((3-tert-butyl-1-(3-chlorophenyl)-1H-pyrazol-5-yl)methyl)-3-(5-fluoro-6-(2-(methylsulfonyl)ethyl)pyridin-3-yl)urea]
Ki: 28 nM

CS(=O)(=O)CCc1ncc(NC(=O)NCc2cc(C(F)(F)F)nn2-c2cccc(Cl)c2)cc1F [Example 23, 1-((1-(3-chlorophenyl)-3-(trifluoromethyl)-1H-pyrazol-5-yl)methyl)-3-(5-fluoro-6-(2-(methylsulfonyl)ethyl)pyridin-3-yl)urea]
Ki: 29 nM

CS(=O)(=O)CCc1ncc(NC(=O)NCc2cc(C3CC3)nn2-c2cccc(Cl)c2)cc1F [Example 24, 1-((1-(3-chlorophenyl)-3-cyclopropyl-1H-pyrazol-5-yl)methyl)-3-(5-fluoro-6-(2-(methylsulfonyl)ethyl)pyridin-3-yl)urea]
Ki: 46 nM

CC(C)(C)c1cc(CNC(=O)Nc2ccc(C(N)=O)nc2)n(-c2cccc(Cl)c2)n1 [Example 25, 5-(3-((3-tert-butyl-1-(3-chlorophenyl)-1H-pyrazol-5-yl)methyl)ureido)picolinamide]
Ki: 31 nM

NC(=O)c1ccc(NC(=O)NCc2cc(C(F)(F)F)nn2-c2cccc(Cl)c2)cn1 [Example 26, 5-(3-((1-(3-chlorophenyl)-3-(trifluoromethyl)-1H-pyrazol-5-yl)methyl)ureido)picolinamide]
inhibition at 5 µM: 44%

CC(C(=O)NCc1cc(C(F)(F)F)nn1-c1cccc(Cl)c1)c1ccc(CNS(C)(=O)=O)nc1 (stereo not shown) [Example 27, N-((1-(3-chlorophenyl)-3-(trifluoromethyl)-1H-pyrazol-5-yl)methyl)-2-(6-(methylsulfonamidomethyl)pyridin-3-yl)propanamide]
Ki: 61 nM

CC(C(=O)NCc1cc(C(F)(F)F)nn1-c1cccc(Cl)c1)c1ccc(CO)nc1 (stereo not shown) [Example 30, N-((1-(3-chlorophenyl)-3-(trifluoromethyl)-1H-pyrazol-5-yl)methyl)-2-(6-(hydroxymethyl)pyridin-3-yl)propanamide]
Ki: 1 nM

O=C(NCc1cc(C(F)(F)F)nn1-c1cccc(Cl)c1)Nc1ccc(CO)nc1 [Example 32, 1-((1-(3-chlorophenyl)-3-(trifluoromethyl)-1H-pyrazol-5-yl)methyl)-3-(6-(hydroxymethyl)pyridin-3-yl)urea]
Ki: 32 nM
